Consider 19 compounds from US11020399B2, “Intermediates useful in the synthesis of compounds as modulators of protein kinases” (Rhizen Pharmaceuticals SA, priority 2011, dated 2021).

Molecules are shown by their SMILES.

Common to all, as to type: biochemical
One assay has as its target PI3kδ (Homo sapiens, UniProt O00329). Description: Fluorescent (HTRF) determination of PI3 kinase enzyme activity, PI3Kδ. The following applies: for inhibition at 0.3 µM: 300 nM (Examples 1-59). In a few lines: (§1)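 Compounds tested at 1 μM on α and β isoforms and at 0.3 or 0.1 μM on γ and δ, with percent inhibition from blank and enzyme controls, plus IC50 fits. Room-temperature reaction: 10 min enzyme–compound preincubation in MgCl2/DTT buffer with 1.38 μM PIP2, then 30 min after 400 μM ATP addition; PIP3 read by HTRF (665/620 nm).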
(In general: Time-resolved FRET reads energy transfer from a long-lived donor to a nearby acceptor.)

Another assay addresses PI3kα (Homo sapiens, UniProt P42336). As to the kind of experiment: Fluorescent (HTRF) determination of PI3 kinase enzyme activity, PI3Kα. The following applies: 1 uM. In a few lines: as §1
A further assay has as its target PI3kγ (Homo sapiens, UniProt P48736). Description: Fluorescent (HTRF) determination of PI3 kinase enzyme activity, PI3Kγ. The following applies: for inhibition at 0.3 µM: 300 nM (Examples 1-59); for % inhibition (PI3kγ) 100 nM / inhibition at 0.1 µM: 100 nM (Examples 60-137); for % inhibition (PI3kγ) 100 nM: 0.1 µM. In a few lines: as §1
The target of the next assay is PI3kβ (Homo sapiens, UniProt P42338). Description: Fluorescent (HTRF) determination of PI3 kinase enzyme activity, PI3Kβ. The following applies: 1 uM. In a few lines: as §1
Sequence of PI3kβ (P42338 whole entry): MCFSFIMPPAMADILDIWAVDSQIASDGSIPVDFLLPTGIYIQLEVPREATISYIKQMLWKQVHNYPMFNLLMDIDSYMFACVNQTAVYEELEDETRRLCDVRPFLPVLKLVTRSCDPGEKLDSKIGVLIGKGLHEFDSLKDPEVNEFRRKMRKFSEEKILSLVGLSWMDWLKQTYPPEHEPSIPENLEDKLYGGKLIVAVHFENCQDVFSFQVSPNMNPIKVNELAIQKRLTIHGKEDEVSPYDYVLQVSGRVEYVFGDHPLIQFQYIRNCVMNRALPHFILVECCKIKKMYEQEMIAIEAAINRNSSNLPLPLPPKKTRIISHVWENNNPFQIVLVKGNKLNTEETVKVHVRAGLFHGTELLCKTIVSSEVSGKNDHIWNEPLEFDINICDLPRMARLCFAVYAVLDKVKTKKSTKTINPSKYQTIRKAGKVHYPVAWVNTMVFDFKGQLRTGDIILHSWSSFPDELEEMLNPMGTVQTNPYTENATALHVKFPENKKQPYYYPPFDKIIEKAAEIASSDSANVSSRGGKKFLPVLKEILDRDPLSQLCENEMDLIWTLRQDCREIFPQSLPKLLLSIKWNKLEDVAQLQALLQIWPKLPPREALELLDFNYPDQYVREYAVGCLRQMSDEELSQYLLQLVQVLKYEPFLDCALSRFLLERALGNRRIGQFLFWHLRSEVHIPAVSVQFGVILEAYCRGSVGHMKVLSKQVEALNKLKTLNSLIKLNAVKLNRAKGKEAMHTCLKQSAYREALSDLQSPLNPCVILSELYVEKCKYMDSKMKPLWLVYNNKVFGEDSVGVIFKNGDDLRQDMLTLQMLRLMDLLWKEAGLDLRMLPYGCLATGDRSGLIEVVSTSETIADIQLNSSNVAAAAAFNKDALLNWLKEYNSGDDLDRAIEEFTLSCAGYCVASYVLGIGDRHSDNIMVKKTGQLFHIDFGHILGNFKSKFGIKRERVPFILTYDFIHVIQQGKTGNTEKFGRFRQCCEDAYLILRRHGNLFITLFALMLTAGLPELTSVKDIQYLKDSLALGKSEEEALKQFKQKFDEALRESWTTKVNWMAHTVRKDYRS
Sequence of PI3kβ (P27986 whole entry partner): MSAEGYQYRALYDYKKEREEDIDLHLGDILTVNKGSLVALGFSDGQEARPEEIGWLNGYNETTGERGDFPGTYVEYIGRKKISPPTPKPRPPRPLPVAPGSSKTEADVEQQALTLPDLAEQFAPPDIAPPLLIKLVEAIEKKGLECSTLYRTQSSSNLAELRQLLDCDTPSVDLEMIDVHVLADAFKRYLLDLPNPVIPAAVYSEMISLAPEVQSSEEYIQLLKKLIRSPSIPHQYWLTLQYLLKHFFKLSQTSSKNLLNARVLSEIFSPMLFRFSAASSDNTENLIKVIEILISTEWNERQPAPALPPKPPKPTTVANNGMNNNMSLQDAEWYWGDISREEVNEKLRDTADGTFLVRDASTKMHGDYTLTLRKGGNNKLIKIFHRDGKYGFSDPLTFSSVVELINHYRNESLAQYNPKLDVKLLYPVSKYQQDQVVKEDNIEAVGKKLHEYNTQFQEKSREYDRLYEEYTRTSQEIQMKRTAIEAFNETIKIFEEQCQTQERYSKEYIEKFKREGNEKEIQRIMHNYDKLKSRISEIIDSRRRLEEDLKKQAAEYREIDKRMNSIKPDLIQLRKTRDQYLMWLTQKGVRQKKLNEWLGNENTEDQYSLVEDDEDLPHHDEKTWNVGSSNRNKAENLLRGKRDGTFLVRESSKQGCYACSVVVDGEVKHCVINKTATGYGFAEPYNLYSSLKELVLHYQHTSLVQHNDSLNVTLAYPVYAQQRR

Sequence of PI3kγ (P48736 whole entry): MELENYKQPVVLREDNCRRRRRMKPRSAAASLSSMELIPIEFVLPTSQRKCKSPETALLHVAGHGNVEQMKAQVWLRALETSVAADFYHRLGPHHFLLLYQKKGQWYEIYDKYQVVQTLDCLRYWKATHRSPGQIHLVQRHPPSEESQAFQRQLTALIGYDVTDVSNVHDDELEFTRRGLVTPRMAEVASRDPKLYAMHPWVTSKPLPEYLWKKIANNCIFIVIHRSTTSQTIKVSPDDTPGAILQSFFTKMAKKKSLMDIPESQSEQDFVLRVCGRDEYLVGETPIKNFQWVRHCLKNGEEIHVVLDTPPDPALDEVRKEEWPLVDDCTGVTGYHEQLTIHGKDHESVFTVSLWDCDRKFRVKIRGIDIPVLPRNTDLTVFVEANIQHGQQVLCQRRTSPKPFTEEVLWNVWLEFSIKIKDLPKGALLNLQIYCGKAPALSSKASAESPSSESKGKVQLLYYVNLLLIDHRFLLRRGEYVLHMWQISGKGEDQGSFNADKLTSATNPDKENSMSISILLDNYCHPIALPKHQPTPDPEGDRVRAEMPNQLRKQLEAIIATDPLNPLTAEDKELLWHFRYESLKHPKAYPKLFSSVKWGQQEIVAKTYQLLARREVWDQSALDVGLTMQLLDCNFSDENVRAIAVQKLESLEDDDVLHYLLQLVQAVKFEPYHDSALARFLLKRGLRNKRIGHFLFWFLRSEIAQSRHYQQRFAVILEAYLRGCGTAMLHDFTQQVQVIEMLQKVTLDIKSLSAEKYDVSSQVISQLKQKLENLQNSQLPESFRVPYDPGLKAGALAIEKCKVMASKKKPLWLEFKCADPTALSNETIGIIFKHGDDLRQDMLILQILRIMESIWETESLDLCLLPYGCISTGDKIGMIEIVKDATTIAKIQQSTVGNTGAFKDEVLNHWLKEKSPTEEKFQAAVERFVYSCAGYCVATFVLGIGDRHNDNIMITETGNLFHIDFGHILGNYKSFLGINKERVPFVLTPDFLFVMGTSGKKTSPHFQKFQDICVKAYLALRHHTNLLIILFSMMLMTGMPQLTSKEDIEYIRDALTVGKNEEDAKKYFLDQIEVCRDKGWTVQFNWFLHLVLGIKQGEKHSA
Sequence of PI3kα (P42336 whole entry): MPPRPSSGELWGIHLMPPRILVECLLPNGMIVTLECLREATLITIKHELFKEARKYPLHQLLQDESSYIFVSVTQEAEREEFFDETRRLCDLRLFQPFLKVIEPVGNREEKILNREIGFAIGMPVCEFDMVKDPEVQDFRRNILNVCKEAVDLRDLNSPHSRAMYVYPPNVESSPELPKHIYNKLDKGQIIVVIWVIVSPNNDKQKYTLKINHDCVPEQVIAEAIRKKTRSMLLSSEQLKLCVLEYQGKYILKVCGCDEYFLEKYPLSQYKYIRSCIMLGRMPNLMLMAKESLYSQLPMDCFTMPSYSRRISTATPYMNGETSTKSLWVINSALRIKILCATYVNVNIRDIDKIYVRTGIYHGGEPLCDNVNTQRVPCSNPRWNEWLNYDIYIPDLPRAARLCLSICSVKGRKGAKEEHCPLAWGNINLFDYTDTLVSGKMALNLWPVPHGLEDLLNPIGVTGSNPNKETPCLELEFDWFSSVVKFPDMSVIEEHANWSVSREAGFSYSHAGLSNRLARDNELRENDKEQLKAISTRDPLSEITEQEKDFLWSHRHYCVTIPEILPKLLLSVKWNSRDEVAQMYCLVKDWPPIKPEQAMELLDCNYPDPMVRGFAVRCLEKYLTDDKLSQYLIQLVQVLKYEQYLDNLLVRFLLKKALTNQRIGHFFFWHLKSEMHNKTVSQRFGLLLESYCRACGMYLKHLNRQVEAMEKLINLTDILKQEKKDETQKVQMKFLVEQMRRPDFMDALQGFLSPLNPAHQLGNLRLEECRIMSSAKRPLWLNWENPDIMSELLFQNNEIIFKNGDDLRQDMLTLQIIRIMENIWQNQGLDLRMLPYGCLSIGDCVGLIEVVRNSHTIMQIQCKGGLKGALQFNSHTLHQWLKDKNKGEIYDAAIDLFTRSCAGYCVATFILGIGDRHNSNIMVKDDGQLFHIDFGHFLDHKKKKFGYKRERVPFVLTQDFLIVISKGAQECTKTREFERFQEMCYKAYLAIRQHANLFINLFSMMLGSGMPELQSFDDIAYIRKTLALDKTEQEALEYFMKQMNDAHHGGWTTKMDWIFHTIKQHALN
Sequence of PI3kα (P27986 whole entry partner): as the sequence (P27986 whole entry partner) above
Sequence of PI3kδ (O00329 whole entry, canonical isoform): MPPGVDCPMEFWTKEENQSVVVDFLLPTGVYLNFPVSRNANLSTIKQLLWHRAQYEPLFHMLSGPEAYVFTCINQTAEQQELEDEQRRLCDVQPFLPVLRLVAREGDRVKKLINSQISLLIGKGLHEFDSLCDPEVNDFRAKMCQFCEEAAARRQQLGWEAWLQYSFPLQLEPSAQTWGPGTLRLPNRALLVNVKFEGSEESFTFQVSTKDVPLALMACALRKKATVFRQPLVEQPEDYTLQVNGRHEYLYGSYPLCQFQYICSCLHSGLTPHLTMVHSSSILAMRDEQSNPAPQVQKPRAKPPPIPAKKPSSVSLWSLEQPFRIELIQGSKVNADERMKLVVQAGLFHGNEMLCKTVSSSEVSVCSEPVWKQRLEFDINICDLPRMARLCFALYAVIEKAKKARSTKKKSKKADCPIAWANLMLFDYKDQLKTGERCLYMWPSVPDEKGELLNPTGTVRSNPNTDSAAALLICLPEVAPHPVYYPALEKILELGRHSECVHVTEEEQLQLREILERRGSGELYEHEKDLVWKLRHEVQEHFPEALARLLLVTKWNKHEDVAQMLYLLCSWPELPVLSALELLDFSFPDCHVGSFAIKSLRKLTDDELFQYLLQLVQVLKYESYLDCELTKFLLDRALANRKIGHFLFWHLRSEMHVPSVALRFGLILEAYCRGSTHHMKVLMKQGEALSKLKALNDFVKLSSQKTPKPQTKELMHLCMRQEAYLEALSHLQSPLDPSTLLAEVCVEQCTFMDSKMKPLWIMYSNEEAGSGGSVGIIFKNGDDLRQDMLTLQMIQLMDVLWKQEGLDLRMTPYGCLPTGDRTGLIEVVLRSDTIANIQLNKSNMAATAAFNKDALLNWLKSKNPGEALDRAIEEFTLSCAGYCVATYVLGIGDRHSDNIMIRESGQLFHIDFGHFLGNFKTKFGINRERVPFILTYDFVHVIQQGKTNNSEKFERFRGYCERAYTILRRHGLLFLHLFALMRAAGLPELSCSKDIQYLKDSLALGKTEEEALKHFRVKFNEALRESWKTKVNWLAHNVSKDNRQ
Sequence of PI3kδ (P27986 whole entry partner, canonical isoform): as the sequence (P27986 whole entry partner) above

As usually defined, the IC50 is the point on the concentration scale where inhibition reaches its midpoint. In general, inhibition refers to the drop in the measured response relative to a control, in per cent. On to `CC(C)Oc1ccc(-c2nn(Cc3oc4cccc(F)c4c(=O)c3-c3cccc(F)c3)c3ncnc(N)c23)cc1F` [Example 3, 2-((4-amino-3-(3-fluoro-4-isopropoxyphenyl)-1H-pyrazolo[3,4-d]pyrimidin-1-yl)methyl)-5-fluoro-3-(3-fluorophenyl)-4H-chromen-4-one], for which the IC50 at PI3kδ was in the range of 50 to 100 nM; at PI3kγ it was 100 to 300 nM. Also, the inhibition at 0.3 µM against PI3kδ and on PI3kγ was 50 to 75% each time. Further, the inhibition at 1 µM at PI3kα is 25 to 50%; on PI3kβ, 0 to 25%.
As for `CC(c1oc2cccc(F)c2c(=O)c1-c1cccc(F)c1)n1nc(N2CCCCC2)c2c(N)ncnc21` (stereo not shown) [Example 39, 2-(1-(4-amino-3-(piperidin-1-yl)-1H-pyrazolo[3,4-d]pyrimidin-1-yl)ethyl)-5-fluoro-3-(3-fluorophenyl)-4H-chromen-4-one], the values for the inhibition at 0.3 µM at PI3kδ and on PI3kγ were 25 to 50% and 0 to 25%, respectively. The values for the inhibition at 1 µM against PI3kα and against PI3kβ were 25 to 50% and 50 to 75%, respectively.
`CC(c1oc2cccc(F)c2c(=O)c1-c1ccc(F)cc1)n1ncc2c(N)ncnc21` (stereo not shown) [Example 30, 2-(1-(4-amino-1H-pyrazolo[3,4-d]pyrimidin-1-yl)ethyl)-5-fluoro-3-(4-fluorophenyl)-4H-chromen-4-one]: the inhibition at 0.3 µM at PI3kδ was in the range of 25 to 50%; on PI3kγ it was 0 to 25%. The inhibition at 1 µM against PI3kα fell in the range of 25 to 50%; against PI3kβ it was 0 to 25%.
`CC(c1oc2cccc(F)c2c(=O)c1-c1cccc(F)c1)n1nc(-c2ccc(N3CCOCC3)c(Cl)c2)c2c(N)ncnc21` (stereo not shown) [Example 113, 2-(1-(4-amino-3-(3-chloro-4-morpholinophenyl)-1H-pyrazolo[3,4-d]pyrimidin-1-yl)ethyl)-5-fluoro-3-(3-fluorophenyl)-4H-chromen-4-one] yielded an IC50 at PI3kδ not above 50 nM. For the same compound, the inhibition at 0.1 µM on PI3kδ (100 nM (Examples 60-137)) was in the range of 50 to 75%. For the same compound, the “% inhibition (PI3kα) 1 uM” value at PI3kα is “C (C=>25 to 50%)”. Besides, at PI3kγ, the IC50 fell in the range of 50 to 100 nM and the “% inhibition (PI3kγ) 100 nM” value was “B (B=>50 to 75%)”. The “% inhibition (PI3kβ) 1 uM” value at PI3kβ is “D (D=0 to 25%)”.
With `CC(c1oc2cccc(F)c2c(=O)c1-c1ccc(F)cc1)n1nc(-c2ccc(OC(F)F)c(F)c2)c2c(N)ncnc21` (single isomer, unassigned) [Example 97], the inhibition at 0.1 µM against PI3kδ (100 nM (Examples 60-137)) and at PI3kγ was 25 to 50% throughout. Besides, the inhibition at 1 µM against PI3kα and against PI3kβ was 25 to 50% in each case.
On to `CC(c1oc2cccc(F)c2c(=O)c1-c1ccc(F)cc1)n1cnc2c(N3CCOCC3)ncnc21` (stereo not shown) [Example 108, 5-fluoro-3-(4-fluorophenyl)-2-(1-(6-morpholino-9H-purin-9-yl)ethyl)-4H-chromen-4-one], for which the inhibition at 0.1 µM on PI3kδ (100 nM (Examples 60-137)) and on PI3kγ was 25 to 50% in each case. The values for the inhibition at 1 µM at PI3kα and against PI3kβ were 25 to 50% and 0 to 25%, respectively.
Turning to `Cc1nc2ccc(-c3nn(C(C)c4oc5cccc(F)c5c(=O)c4-c4cccc(F)c4)c4ncnc(N)c34)cc2o1` (stereo not shown) [Example 118, 2-(1-(4-amino-3-(2-methylbenzo[d]oxazol-6-yl)-1H-pyrazolo[3,4-d]pyrimidin-1-yl)ethyl)-5-fluoro-3-(3-fluorophenyl)-4H-chromen-4-one], the inhibition at 0.1 µM on PI3kδ (100 nM (Examples 60-137)) and at PI3kγ was 25 to 50% throughout. In addition, the inhibition at 1 µM against PI3kα lay within 25 to 50%; on PI3kβ it was 0 to 25%.
As for `CC(C)Oc1ccc(-c2nn(C(C)c3oc4cccc(F)c4c(=O)c3-c3ccccc3)c3ncnc(N)c23)cc1F` (stereo not shown) [Example 13, 2-(1-(4-amino-3-(3-fluoro-4-isopropoxyphenyl)-1H-pyrazolo[3,4-d]pyrimidin-1-yl)ethyl)-5-fluoro-3-phenyl-4H-chromen-4-one], at PI3kδ, the IC50 was not above 50 nM and the inhibition at 0.3 µM fell in the range of 75 to 100%. Also, the “% inhibition (PI3kα) 1 uM” value at PI3kα is recorded as “D (D=0 to 25%)”. For the same compound, at PI3kγ, the inhibition at 0.3 µM is 50 to 75%. Moreover, at PI3kβ, the “% inhibition (PI3kβ) 1 uM” value is reported as “D (D=0 to 25%)”.
Consider `Cc1cc(-c2nn(C(C)c3oc4cccc(F)c4c(=O)c3-c3cccc(F)c3)c3ncnc(N)c23)ccc1OC(C)C` (single isomer, unassigned; (-)) [Example 115, (−) 2-(1-(4-amino-3-(4-isopropoxy-3-methylphenyl)-1H-pyrazolo[3,4-d]pyrimidin-1-yl)ethyl)-5-fluoro-3-(3-fluorophenyl)-4H-chromen-4-one], for which the “% inhibition (PI3kδ) 100 nM” value on PI3kδ (100 nM (Examples 60-137), 0.1 µM) is listed as “C (C=>25 to 50%)”. Further, the “% inhibition (PI3kα) 1 uM” value at PI3kα is given as “C (C=>25 to 50%)”. At PI3kγ, the “% inhibition (PI3kγ) 100 nM” value is given as “C (C=>25 to 50%)”. Besides, the “% inhibition (PI3kβ) 1 uM” value at PI3kβ is reported as “D (D=0 to 25%)”.
For the compound `CC(c1oc2cccc(F)c2c(=O)c1-c1ccccc1)n1nc(-c2ccc(OC(F)F)c(F)c2)c2c(N)ncnc21` (stereo not shown) [Example 32, 2-(1-(4-amino-3-(4-(difluoromethoxy)-3-fluorophenyl)-1H-pyrazolo[3,4-d]pyrimidin-1-yl)ethyl)-5-fluoro-3-phenyl-4H-chromen-4-one], the inhibition at 0.3 µM on PI3kδ is 0 to 25%; at PI3kγ, 50 to 75%. Moreover, the “% inhibition (PI3kα) 1 uM” value at PI3kα is “D (D=0 to 25%)”. Besides, on PI3kβ, the “% inhibition (PI3kβ) 1 uM” value is recorded as “B (B=>50 to 75%)”.
Regarding `CSc1nn(C(C)c2oc3cccc(F)c3c(=O)c2-c2cccc(F)c2)c2ncnc(N)c12` (stereo not shown) [Example 41, 2-(1-(4-amino-3-(methylthio)-1H-pyrazolo[3,4-d]pyrimidin-1-yl)ethyl)-5-fluoro-3-(3-fluorophenyl)-4H-chromen-4-one], the inhibition at 0.3 µM on PI3kδ and against PI3kγ was 50 to 75% throughout. Moreover, the inhibition at 1 µM at PI3kα and at PI3kβ was 25 to 50% in each case.
For `CC(c1oc2cccc(F)c2c(=O)c1-c1cccc(F)c1)n1cnc2c(N)ncnc21` (stereo not shown) [Example 11, 2-(1-(6-amino-9H-purin-9-yl)ethyl)-5-fluoro-3-(3-fluorophenyl)-4H-chromen-4-one], the values for the inhibition at 0.3 µM against PI3kδ and against PI3kγ were 50 to 75% and 25 to 50%, respectively. Also, the inhibition at 1 µM on PI3kα and against PI3kβ was 50 to 75% throughout.
For `CC(C)Oc1ccc(-c2nn(C(C)c3oc4cccc(F)c4c(=O)c3-c3cccc(F)c3)c3ncnc(N)c23)cc1F` (single isomer, unassigned; (+)) [Example 7, (+)-2-(1-(4-amino-3-(3-fluoro-4-isopropoxyphenyl)-1H-pyrazolo[3,4-d]pyrimidin-1-yl)ethyl)-5-fluoro-3-(3-fluorophenyl)-4H-chromen-4-one], the IC50 against PI3kδ and on PI3kγ was not above 50 nM each time. Moreover, the “% inhibition (PI3kα) 1 uM” value at PI3kα is “C (C=>25 to 50%)”. The inhibition at 1 µM on PI3kβ was in the range of 50 to 75%.
As for `CC(c1oc2cccc(F)c2c(=O)c1-c1ccc(F)cc1)n1nc(-c2ccc(OC(F)F)c(F)c2)c2c(N)ncnc21` (stereo not shown) [Example 31, 2-(1-(4-amino-3-(4-(difluoromethoxy)-3-fluorophenyl)-1H-pyrazolo[3,4-d]pyrimidin-1-yl)ethyl)-5-fluoro-3-(4-fluorophenyl)-4H-chromen-4-one], the inhibition at 0.3 µM against PI3kδ and on PI3kγ was 50 to 75% throughout. Moreover, the inhibition at 1 µM at PI3kα and at PI3kβ was 25 to 50% each time.
In the case of `CC(C)Oc1ccc(-c2nn(C(C)c3oc4cccc(F)c4c(=O)c3-c3ccc(F)cc3)c3ncnc(N)c23)cc1F` (racemic) [Example 94, (S)/(R)-2-(1-(4-amino-3-(3-fluoro-4-isopropoxyphenyl)-1H-pyrazolo[3,4-d]pyrimidin-1-yl)ethyl)-5-fluoro-3-(4-fluorophenyl)-4H-chromen-4-one], the inhibition at 0.1 µM against PI3kδ (100 nM (Examples 60-137)) and on PI3kγ was 25 to 50% in each case. Further, the “% inhibition (PI3kα) 1 uM” value at PI3kα is on record as “C (C=>25 to 50%)”. The compound further had an inhibition at 1 µM at PI3kβ of 25 to 50%.
`CC(C)Oc1ccc(-c2nn(C(C)c3oc4cccc(F)c4c(=O)c3-c3cccc(F)c3)c3ncnc(N)c23)cn1` (stereo not shown) [Example 40, 2-(1-(4-amino-3-(6-isopropoxypyridin-3-yl)-1H-pyrazolo[3,4-d]pyrimidin-1-yl)ethyl)-5-fluoro-3-(3-fluorophenyl)-4H-chromen-4-one]: the inhibition at 0.3 µM on PI3kδ lay in the range of 50 to 75%; against PI3kγ, 0 to 25%. The inhibition at 1 µM against PI3kα was in the range of 25 to 50%; against PI3kβ, 50 to 75%.
Consider `CC(c1oc2cccc(F)c2c(=O)c1-c1ccc(F)cc1)n1cnc2c(N)nc(F)nc21` (stereo not shown) [Example 107, 2-(1-(6-amino-2-fluoro-9H-purin-9-yl)ethyl)-5-fluoro-3-(4-fluorophenyl)-4H-chromen-4-one], for which the values for the inhibition at 0.1 µM against PI3kδ (100 nM (Examples 60-137)) and against PI3kγ were 0 to 25% and 25 to 50%, respectively. Further, the inhibition at 1 µM against PI3kα lay within 0 to 25%; against PI3kβ, 25 to 50%.
Turning to `CC(c1oc2cccc(F)c2c(=O)c1-c1ccccc1)n1ncc2c(N)ncnc21` (stereo not shown) [Example 29, 2-(1-(4-amino-1H-pyrazolo[3,4-d]pyrimidin-1-yl)ethyl)-5-fluoro-3-phenyl-4H-chromen-4-one], the inhibition at 0.3 µM at PI3kδ lay in the range of 25 to 50%; against PI3kγ, 50 to 75%. Further, the inhibition at 1 µM against PI3kα lay in the range of 0 to 25%; at PI3kβ it was 25 to 50%.
With `CC(c1oc2cccc(F)c2c(=O)c1-c1cccc(F)c1)n1nc(-c2cn[nH]c2)c2c(N)ncnc21` (stereo not shown) [Example 10, 2-(1-(4-amino-3-(1H-pyrazol-4-yl)-1H-pyrazolo[3,4-d]pyrimidin-1-yl)ethyl)-5-fluoro-3-(3-fluorophenyl)-4H-chromen-4-one], the inhibition at 0.3 µM on PI3kδ is 25 to 50%; on PI3kγ, 75 to 100%. Moreover, the inhibition at 1 µM against PI3kα lay in the range of 25 to 50%; on PI3kβ, 0 to 25%. For the same compound, on PI3kγ, the IC50 lay within 100 to 300 nM.
